Values quoted from earlier work in paper PMC3759941 (International Journal of Molecular Sciences, 2013).
Read-outs that look alike come from different tables or passages of the source.

System: EeAChE

Compound	IC50 (Table 2, bis-pyridinium reactivators) [mM]	IC50 (Table 3) [mM]	IC50 (Table 1, mono-pyridinium reactivators) [mM]
ON=Cc1cc[n+](CCC[n+]2ccc(/C=N/O)cc2)cc1 [Compound 6, trimedoxime]	51.9	51.9	–
C[n+]1ccccc1/C=N/O [Compound 1, 2-pyridine aldoxime methiodide]	–	–	54.9
ON=Cc1cc[n+](C/C=C/C[n+]2ccc(C=NO)cc2)cc1 [Compound 23]	–	36.7	–
